Data: ChEMBL document CHEMBL4507274 (2021)

Key:
[1] = target: Serine/threonine-protein kinase 17A (Homo sapiens) (UniProt Q9UEE5); settings: Compound concentration 100.0 nM
[2] = target: Serine/threonine-protein kinase 10 (Homo sapiens) (UniProt O94804); settings: Compound concentration 100.0 nM
[3] = target: T1, Calcium/calmodulin-dependent protein kinase type IV (Homo sapiens) (UniProt Q16566); settings: Compound concentration 100.0 nM
T1 sequence (whole entry): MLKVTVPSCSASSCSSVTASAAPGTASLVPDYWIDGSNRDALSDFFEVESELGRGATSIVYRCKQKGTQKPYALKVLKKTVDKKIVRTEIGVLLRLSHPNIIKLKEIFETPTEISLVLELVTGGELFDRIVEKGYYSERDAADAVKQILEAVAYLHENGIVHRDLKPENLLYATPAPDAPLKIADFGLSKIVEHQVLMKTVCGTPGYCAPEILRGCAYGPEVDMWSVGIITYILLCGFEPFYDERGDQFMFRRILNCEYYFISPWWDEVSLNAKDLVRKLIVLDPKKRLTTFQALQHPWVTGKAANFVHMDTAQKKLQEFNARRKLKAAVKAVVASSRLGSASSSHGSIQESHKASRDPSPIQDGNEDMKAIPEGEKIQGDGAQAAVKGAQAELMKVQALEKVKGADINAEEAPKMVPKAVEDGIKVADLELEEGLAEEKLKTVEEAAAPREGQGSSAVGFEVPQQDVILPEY

[4] = target: Serine/threonine-protein kinase NLK (Homo sapiens) (UniProt Q9UBE8); settings: Compound concentration 100.0 nM
[5] = target: Mitogen-activated protein kinase 7 (Homo sapiens) (UniProt Q13164); settings: Compound concentration 100.0 nM
[6] = tested on: Mast/stem cell growth factor receptor Kit (Homo sapiens), P10721 [V559D,V654A]; settings: Compound concentration 100.0 nM
[7] = target: Serine/threonine-protein kinase RIO2 (Homo sapiens) (UniProt Q9BVS4); settings: Compound concentration 100.0 nM
[8] = target: Interleukin-1 receptor-associated kinase 3 (Homo sapiens) (UniProt Q9Y616); settings: Compound concentration 100.0 nM
[9] = target: Calcium/calmodulin-dependent protein kinase type II subunit gamma (Homo sapiens) (UniProt Q13555); settings: Compound concentration 100.0 nM
[10] = target: Calcium/calmodulin-dependent protein kinase type 1D (Homo sapiens) (UniProt Q8IU85); settings: Compound concentration 100.0 nM
[11] = target: Cyclin-dependent kinase 5 (Homo sapiens) (UniProt Q00535); settings: Compound concentration 100.0 nM
[12] = target: Serine/threonine-protein kinase PLK4 (Homo sapiens) (UniProt O00444); settings: Compound concentration 100.0 nM
[13] = target: Dual specificity tyrosine-phosphorylation-regulated kinase 2 (Homo sapiens) (UniProt Q92630); settings: Compound concentration 100.0 nM
[14] = tested on: Epidermal growth factor receptor (Homo sapiens), P00533 [G719S]; settings: Compound concentration 100.0 nM
[15] = target: Serine/threonine-protein kinase SIK3 (Homo sapiens) (UniProt Q9Y2K2); settings: Compound concentration 100.0 nM
[16] = target: Dual specificity mitogen-activated protein kinase kinase 4 (Homo sapiens) (UniProt P45985); settings: Compound concentration 100.0 nM
[17] = target: Mitogen-activated protein kinase kinase kinase kinase 4 (Homo sapiens) (UniProt O95819); settings: Compound concentration 100.0 nM
[18] = target: Cyclin-dependent kinase 11A (Homo sapiens) (UniProt Q9UQ88); settings: Compound concentration 100.0 nM
[19] = target: Receptor tyrosine-protein kinase erbB-3 (Homo sapiens) (UniProt P21860); settings: Compound concentration 100.0 nM
[20] = tested on: Phosphatidylinositol 4,5-bisphosphate 3-kinase catalytic subunit alpha isoform (Homo sapiens), P42336 [E542K]; settings: Compound concentration 100.0 nM
[21] = target: Cyclin-dependent kinase-like 1 (Homo sapiens) (UniProt Q00532); settings: Compound concentration 100.0 nM
[22] = target: Serine/threonine-protein kinase Chk2 (Homo sapiens) (UniProt O96017); test: CHK2 (h) Upstate kinase activity assay; settings: Compound concentration 10.0 uM
[23] = target: Proto-oncogene tyrosine-protein kinase receptor Ret (Homo sapiens) (UniProt P07949); test: Ret (h) Upstate kinase activity assay; settings: Compound concentration 10.0 uM
[24] = target: Ribosomal protein S6 kinase alpha-3 (Homo sapiens) (UniProt P51812); test: Rsk2 (h) Upstate kinase activity assay; settings: Compound concentration 10.0 uM
[25] = target: T2, Serine/threonine-protein kinase D1 (Homo sapiens) (UniProt Q15139); test: PKCmu (h) Upstate kinase activity assay; settings: Compound concentration 10.0 uM
T2 sequence (whole entry): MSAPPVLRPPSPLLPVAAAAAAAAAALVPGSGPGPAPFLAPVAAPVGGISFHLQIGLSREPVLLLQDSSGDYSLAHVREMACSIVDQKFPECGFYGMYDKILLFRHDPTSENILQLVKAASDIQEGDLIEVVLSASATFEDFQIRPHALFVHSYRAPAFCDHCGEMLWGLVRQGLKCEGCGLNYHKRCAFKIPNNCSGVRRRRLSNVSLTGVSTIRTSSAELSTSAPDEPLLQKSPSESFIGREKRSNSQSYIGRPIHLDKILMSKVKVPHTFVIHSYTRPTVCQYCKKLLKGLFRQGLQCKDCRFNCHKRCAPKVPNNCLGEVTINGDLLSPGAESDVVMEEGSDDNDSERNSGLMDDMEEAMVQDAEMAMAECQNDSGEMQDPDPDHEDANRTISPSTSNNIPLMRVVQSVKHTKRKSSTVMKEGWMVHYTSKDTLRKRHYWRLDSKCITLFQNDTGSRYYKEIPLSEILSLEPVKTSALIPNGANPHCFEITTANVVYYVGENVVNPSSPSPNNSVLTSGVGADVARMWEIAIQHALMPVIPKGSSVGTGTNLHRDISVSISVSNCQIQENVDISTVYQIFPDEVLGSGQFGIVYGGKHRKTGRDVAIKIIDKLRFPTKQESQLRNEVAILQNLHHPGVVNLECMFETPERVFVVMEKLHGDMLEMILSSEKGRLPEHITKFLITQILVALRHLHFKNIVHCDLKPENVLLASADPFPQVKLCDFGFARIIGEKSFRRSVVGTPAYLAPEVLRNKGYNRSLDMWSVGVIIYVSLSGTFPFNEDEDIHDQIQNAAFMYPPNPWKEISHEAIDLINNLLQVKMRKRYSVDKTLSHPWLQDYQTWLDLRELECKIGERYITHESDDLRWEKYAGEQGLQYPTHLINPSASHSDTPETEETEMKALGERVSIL

[26] = target: Protein kinase C gamma type (Homo sapiens) (UniProt P05129); test: PKCgamma (h) Upstate kinase activity assay; settings: Compound concentration 10.0 uM

Sequence of Serine/threonine-protein kinase RIO2 (Homo sapiens) (Q9BVS4 whole entry, looked up): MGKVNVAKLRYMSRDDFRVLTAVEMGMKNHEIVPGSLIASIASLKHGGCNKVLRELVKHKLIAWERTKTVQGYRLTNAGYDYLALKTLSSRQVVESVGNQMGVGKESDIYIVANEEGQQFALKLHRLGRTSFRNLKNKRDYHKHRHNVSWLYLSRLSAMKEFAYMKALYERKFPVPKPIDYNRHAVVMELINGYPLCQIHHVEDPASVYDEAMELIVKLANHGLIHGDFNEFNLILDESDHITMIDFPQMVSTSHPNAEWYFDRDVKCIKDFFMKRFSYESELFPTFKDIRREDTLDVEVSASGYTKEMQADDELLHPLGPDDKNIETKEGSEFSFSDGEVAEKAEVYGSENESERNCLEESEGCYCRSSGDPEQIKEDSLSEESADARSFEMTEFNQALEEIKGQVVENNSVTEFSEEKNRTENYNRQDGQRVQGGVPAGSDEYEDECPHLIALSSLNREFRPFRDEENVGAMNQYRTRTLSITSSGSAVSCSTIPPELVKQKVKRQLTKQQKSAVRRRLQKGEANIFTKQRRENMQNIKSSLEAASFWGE
Sequence of Dual specificity tyrosine-phosphorylation-regulated kinase 2 (Homo sapiens) (Q92630 whole entry): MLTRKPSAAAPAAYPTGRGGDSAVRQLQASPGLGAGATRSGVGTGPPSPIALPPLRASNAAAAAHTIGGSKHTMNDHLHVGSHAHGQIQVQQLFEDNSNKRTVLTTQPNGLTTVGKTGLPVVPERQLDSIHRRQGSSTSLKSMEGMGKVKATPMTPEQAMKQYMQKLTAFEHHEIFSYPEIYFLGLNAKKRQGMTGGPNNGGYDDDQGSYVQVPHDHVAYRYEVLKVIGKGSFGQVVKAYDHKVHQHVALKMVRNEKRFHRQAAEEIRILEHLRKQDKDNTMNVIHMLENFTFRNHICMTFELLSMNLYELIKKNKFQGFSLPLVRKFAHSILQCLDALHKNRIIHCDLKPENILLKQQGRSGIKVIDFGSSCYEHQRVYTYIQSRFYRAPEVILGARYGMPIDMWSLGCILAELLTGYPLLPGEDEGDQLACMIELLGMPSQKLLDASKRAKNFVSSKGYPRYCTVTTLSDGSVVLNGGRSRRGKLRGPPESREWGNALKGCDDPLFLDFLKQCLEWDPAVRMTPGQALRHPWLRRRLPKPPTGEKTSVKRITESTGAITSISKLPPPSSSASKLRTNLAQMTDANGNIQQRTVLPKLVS
Sequence of Serine/threonine-protein kinase 17A (Homo sapiens) (Q9UEE5 whole entry): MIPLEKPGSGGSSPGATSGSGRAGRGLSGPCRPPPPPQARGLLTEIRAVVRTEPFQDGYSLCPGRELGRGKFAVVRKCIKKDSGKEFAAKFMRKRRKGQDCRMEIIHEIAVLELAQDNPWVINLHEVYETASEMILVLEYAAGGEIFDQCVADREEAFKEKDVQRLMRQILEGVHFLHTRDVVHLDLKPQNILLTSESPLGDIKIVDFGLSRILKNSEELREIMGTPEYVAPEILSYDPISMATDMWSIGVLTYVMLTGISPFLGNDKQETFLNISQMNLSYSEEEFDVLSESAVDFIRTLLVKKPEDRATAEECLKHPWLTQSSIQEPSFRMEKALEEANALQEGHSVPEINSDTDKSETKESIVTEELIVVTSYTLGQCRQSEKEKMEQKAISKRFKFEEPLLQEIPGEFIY
Sequence of Calcium/calmodulin-dependent protein kinase type 1D (Homo sapiens) (Q8IU85 whole entry, looked up): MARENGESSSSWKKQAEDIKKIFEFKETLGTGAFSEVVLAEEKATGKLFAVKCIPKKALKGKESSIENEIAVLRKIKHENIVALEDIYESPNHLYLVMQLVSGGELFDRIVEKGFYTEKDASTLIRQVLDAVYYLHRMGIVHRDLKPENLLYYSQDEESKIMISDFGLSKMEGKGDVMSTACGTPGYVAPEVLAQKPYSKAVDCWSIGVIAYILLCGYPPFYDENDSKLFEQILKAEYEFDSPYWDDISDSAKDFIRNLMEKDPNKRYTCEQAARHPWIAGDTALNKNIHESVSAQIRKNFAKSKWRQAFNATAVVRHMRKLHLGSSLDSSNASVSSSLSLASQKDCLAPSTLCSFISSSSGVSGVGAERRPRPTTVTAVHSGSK
Sequence of Mitogen-activated protein kinase 7 (Homo sapiens) (Q13164 2-816 limits assumed): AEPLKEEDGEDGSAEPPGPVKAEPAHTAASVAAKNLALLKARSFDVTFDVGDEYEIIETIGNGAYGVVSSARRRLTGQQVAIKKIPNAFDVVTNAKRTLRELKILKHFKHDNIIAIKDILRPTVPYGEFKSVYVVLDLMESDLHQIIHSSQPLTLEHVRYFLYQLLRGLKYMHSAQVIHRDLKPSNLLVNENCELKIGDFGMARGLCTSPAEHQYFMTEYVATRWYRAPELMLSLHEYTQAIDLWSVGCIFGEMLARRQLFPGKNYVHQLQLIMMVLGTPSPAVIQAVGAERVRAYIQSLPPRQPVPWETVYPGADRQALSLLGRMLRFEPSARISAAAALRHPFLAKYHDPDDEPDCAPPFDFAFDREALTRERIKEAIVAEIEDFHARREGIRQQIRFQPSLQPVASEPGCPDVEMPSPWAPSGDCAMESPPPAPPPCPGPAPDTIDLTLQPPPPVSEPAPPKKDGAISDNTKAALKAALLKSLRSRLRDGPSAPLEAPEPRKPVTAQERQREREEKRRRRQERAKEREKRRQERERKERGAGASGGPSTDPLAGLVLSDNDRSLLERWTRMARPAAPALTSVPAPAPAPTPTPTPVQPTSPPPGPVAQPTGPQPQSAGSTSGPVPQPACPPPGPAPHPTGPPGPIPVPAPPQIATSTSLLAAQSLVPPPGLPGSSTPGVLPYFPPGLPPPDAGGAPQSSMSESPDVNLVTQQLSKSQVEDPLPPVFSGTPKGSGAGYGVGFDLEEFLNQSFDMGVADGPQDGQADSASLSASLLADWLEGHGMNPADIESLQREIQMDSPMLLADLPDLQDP
Sequence of Mitogen-activated protein kinase kinase kinase kinase 4 (Homo sapiens) (O95819 2-1239 limits assumed): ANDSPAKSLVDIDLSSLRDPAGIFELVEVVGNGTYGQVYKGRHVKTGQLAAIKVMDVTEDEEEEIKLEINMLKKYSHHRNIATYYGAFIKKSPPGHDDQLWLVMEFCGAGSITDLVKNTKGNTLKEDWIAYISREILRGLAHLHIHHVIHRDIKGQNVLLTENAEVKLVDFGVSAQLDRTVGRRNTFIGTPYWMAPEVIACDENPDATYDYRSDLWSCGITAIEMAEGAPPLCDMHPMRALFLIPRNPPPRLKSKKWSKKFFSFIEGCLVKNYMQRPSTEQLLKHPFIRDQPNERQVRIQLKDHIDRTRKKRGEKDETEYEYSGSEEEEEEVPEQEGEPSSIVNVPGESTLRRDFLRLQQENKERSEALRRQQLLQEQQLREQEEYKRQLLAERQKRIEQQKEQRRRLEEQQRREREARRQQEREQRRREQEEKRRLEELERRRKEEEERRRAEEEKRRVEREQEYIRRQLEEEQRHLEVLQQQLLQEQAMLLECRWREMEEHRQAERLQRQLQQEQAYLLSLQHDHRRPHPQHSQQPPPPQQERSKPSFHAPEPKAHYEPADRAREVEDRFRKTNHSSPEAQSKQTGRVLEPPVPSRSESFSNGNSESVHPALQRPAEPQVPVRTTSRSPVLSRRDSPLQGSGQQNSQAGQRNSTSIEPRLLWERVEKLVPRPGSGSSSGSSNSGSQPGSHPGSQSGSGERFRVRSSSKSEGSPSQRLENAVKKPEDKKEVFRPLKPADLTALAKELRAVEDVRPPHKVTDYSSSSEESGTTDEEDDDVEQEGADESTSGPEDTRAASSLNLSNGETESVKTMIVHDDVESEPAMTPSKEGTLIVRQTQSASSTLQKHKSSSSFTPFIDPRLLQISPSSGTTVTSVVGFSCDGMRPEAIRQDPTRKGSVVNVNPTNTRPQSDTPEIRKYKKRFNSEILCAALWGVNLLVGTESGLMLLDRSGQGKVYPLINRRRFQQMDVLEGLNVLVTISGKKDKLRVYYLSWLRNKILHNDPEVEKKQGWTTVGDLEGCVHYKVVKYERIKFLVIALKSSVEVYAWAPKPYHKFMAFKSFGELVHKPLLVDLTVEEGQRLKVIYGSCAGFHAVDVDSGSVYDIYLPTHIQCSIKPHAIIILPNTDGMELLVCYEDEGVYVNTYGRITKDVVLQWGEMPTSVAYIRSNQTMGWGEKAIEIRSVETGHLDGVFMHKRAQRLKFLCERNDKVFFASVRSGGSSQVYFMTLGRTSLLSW
Sequence of Phosphatidylinositol 4,5-bisphosphate 3-kinase catalytic subunit alpha isoform (Homo sapiens), P42336 [E542K] (P42336 whole entry E542K, canonical isoform): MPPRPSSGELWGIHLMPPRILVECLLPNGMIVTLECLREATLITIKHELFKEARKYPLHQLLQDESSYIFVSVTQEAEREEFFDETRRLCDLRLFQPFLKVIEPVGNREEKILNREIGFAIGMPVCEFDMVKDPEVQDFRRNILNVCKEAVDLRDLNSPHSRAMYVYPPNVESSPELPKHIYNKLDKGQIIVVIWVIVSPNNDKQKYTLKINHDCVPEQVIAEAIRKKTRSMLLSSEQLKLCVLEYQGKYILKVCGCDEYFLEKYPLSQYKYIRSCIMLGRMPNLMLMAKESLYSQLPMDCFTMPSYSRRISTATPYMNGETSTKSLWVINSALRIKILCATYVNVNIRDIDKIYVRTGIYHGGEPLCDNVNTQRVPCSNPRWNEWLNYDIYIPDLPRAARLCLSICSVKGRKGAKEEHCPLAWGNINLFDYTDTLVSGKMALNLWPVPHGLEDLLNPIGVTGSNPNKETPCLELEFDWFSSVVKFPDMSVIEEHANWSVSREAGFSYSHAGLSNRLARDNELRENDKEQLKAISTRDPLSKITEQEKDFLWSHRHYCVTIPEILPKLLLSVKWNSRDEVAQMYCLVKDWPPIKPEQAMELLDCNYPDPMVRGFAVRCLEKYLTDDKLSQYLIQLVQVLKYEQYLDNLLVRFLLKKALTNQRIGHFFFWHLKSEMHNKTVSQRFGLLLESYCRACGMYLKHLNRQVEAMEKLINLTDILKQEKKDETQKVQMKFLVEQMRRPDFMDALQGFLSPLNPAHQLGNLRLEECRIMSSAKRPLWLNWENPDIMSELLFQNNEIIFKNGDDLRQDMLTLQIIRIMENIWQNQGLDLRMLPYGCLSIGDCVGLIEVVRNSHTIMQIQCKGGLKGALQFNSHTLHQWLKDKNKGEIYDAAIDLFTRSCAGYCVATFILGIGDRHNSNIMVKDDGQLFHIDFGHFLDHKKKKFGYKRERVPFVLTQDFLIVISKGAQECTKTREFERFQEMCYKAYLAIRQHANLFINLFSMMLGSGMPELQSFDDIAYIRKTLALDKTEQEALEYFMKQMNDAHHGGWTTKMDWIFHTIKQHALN

Cn1cc(Cl)c2c(Oc3c(F)cc(Nc4cc(Cl)nc(N)n4)cc3F)ccnc21 [BAY-4900]
inactive: residual activity [1] 94% | residual activity [2] 100% | residual activity [3] 96% | residual activity [4] 100% | residual activity [5] 100% | residual activity [6] 90% | residual activity [7] 100% | residual activity [8] 97% | residual activity [9] 100% | residual activity [10] 100% | residual activity [11] 100% | residual activity [12] 83% | residual activity [13] 100% | residual activity [14] 98% | residual activity [15] 100% | residual activity [16] 80% | residual activity [17] 86% | residual activity [18] 100% | residual activity [19] 75% | residual activity [20] 89% | residual activity [21] 100%

Cc1c[nH]c2nccc(Oc3c(F)cc(Nc4cc(Cl)nc(N)n4)cc3F)c12 [BAY-549]
inactive: residual activity [1] 100% | residual activity [2] 100% | inhibition [22] 64% | residual activity [3] 100% | inhibition [23] 52% | residual activity [4] 100% | residual activity [5] 82% | residual activity [6] 94% | residual activity [7] 85% | inhibition [24] 61% | residual activity [8] 85% | residual activity [9] 96% | residual activity [10] 94% | residual activity [11] 94% | residual activity [12] 82% | residual activity [13] 100% | residual activity [15] 100% | residual activity [16] 99% | residual activity [17] 94% | residual activity [18] 100% | residual activity [19] 65% | residual activity [20] 85% | inhibition [25] 60% | residual activity [21] 100% | inhibition [26] 33%
